Experimental data from US4581847A, “Tryptophan overproducer mutants of cereal crops” (Molecular Genetics Research and Development, priority 1984, dated 1986).
Like-named read-outs stand apart in the source and are kept apart here.

Assays:
[1] = tested on: maize callus tissue (unselected parent, A188 x B73); experiment: Callus culture growth inhibition by 5MT, unselected parent tissue; format: cell-based; settings: for IC50: Zea mays, 672 h
Description: Friable, embryogenic maize callus cultures were initiated from hybrid immature embryos produced by pollination of inbred line A188 plants (University of Minnesota, Crop Improvement Association) with pollen of Inbred line B73 plants (Iowa State University). Ears were harvested when embryos had reached a length of 1.5 to 2.0 mm. The whole ear was surface sterilized in […] commercial bleach (2.63% w/v sodium hypochlorite) for 20 minutes at room temperature. The ears were then washed with sterile distilled, deionized water. Immature embryos were aseptically isolated and placed on nutrient agar initiation/maintenance media with the root/shoot axis exposed to the media. Initiation/maintenance media consisted of N6 basal media (Chih-ching in Proceedings of Symposium on Plant Tissue Culture, May 25-30, 1978, Science Press, Peking, pp. 43-50) with 2% (w/v) sucrose, 1.5 mg per liter 2,4-dichlorophenoxyacetic acid (2,4-D), 6 mM proline, and 0.9% (w/v) agar.
The immature embryos were incubated at 26° C. in the dark. Cell proliferations from the scutellum of the immature embryos were evaluated for friable consistency and the presence of well defined somatic embryos. Tissue with this morphology was transferred to fresh media 10 to 14 days after the initial plating of the immature embryos. The tissue was then subcultured on a routine basis every 12 to 16 days. Sixty to eighty milligram quantities of tissue were removed from pieces of tissue that had reached a size of approximately one gram and transferred to fresh media. Subculturing always involved careful visual monitoring to be sure that only tissue of the correct morphology was maintained. The presence of the somatic embryos ensured that the cultures would give rise to plants under the proper conditions.
(§1) The tryptophan analog, 5-methyltryptophan (5MT), was used for selection of tryptophan overproducer mutants as discussion in Section 5 supra. The effect of various concentrations of 5MT on callus growth on solid media was determined. Quantities of tissue averaging 50 mg in size were transferred to nutrient agar maintenance media containing 5MT concentrations ranging from 1.0 to 200 μM. Four tissue pieces were placed on each plate with four plates per analog concentration. After 28 days growth, the tissue was weighed again.

[2] = tested on: maize line C28 callus; experiment: Four week callus growth inhibition study, resistant line C28; format: cell-based
Description: as §1
For each transfer all tissue showing growth and somatic embryo forming ability were placed on fresh media. At the third transfer, the concentration of 5MT was increased to 100 μM. During the course of the selection process, the total number of lines decreased as the analog mediated growth inhibition became more intense. Two lines however, increased in size and by the end of the fourth month of selection were identified as resistant to 5MT. These cell lines were identified as maize line C28 and C66. […]
Four week growth inhibition studies were carried out with 5MT as described supra. The level of 5MT giving 50% growth inhibition was determined to be between 300 and 400 μM for the C28 line compared to 3 to 10 μM for unselected parent tissue. […]

[3] = tested on: maize line C66 callus; experiment: Callus growth inhibition study, resistant line C66; format: cell-based; settings: C66, 5MT at 100 μM or below
Description: as §1
For each transfer all tissue showing growth and somatic embryo forming ability were placed on fresh media. At the third transfer, the concentration of 5MT was increased to 100 μM. During the course of the selection process, the total number of lines decreased as the analog mediated growth inhibition became more intense. Two lines however, increased in size and by the end of the fourth month of selection were identified as resistant to 5MT. These cell lines were identified as maize line C28 and C66. […] Throughout this selection process, the selected cell lines maintained a friable appearance that was similar to the appearance of the original parent cell line.

[4] = tested on: anthranilate synthase (crude callus extracts: AB108 control, K17 line of C28); experiment: Anthranilate synthase assay with 5MT as enzyme inhibitor; format: biochemical, maize; settings: 30° C., 30 minutes, 0.25 mM chorismate, 20 mM L-glutamine; FIG. 4
Description: Assays were conducted to determine whether 5MT resistance was conferred by an alteration in the gene that codes for the anthranilate synthase enzyme. Crude enzyme extract of AB108 control callus and the selected K17 line of C28 callus were prepared as described below. The K17 line of C28 was derived from a regenerated C28 plant crossed with a control plant and then self-pollinated. Immature embryos were then cultured and a callus line developed as described previously.
Plant callus tissue was ground using a mortar and pestle and extracted with 0.2 M Tris-HCl, pH 8.2, 60% glycerol, 0.2 mM dithiothreitol (DTT), 0.2 mM ethylenediaminetetraacetic acid (EDTA), 1.0 mM magnesium sulfate (MgSO4), 20 mM sodium chloride (NaCl) and 1.0 mM L-tryptophan. One ml extraction buffer was used per 2 g callus. The extract was centrifuged at 10,000×g for 25 minutes at 4° C. The supernatant was applied to a 3 cm×15 cm Bio Gel-P6 column (Bio-Rad, Richmond, Calif.) equilibrated with 0.1 M Tris-HCl, pH 7.6, 10% glycerol, 0.1 mM DTT and 0.1 mM EDTA and eluted with the same buffer. 0.75 ml fractions were collected and fractions containing protein were pooled. […]
Assays were conducted in 1 ml volumes as follows. […] The fluorescence due to the production of anthranilate was measured in the 3.5 ml extractant using a Kratos FS950 fluorimeter (Kratos Analytical Instruments, Ramsey, N.J.).

Question: For `N[C@@H](Cc1c[nH]c2ccccc12)C(=O)O` [Tryptophan], which “Reversal of growth inhibitory effects of 5MT” value ([1]; tryptophan added to 5MT-inhibited callus) is on record?
Answer: reverse all the growth inhibitory effects of 5MT

Question: Which results are given for `Cc1ccc2[nH]cc(C[C@H](N)C(=O)O)c2c1` [5MT, 5-methyltryptophan]?
Answer: IC50 ([1]; callus on solid maintenance media, 28 days growth, 1.0 to 200 μM 5MT, read-out: 5MT concentration giving half maximal inhibition of growth rate): 3 to 10 µM; IC50 ([1]; unselected parent tissue, four week growth inhibition, read-out: Level of 5MT giving 50% growth inhibition): 3 to 10 µM; Cell death ([1]; analog concentrations of 100 and 200 μM, 28 days): Cell death was observed; Growth inhibition by the analog compared to parental cell line AB1 (FIG. 2) ([2]; C28, 5MT at 100 μM or below): no longer seriously inhibited; IC50 ([2]; Zea mays, 672 h, C28 line, four week growth inhibition, read-out: Level of 5MT giving 50% growth inhibition): 300 to 400 µM; Growth inhibition by the analog compared to parental cell line AB1 (FIG. 2) [3]: no longer seriously inhibited; Fold higher 5MT level needed for 50% inhibition of C28 AS compared with control AS [4]: 10 fold
